Tested on: mouse collagen-induced arthritis model
Experiment: Mouse collagen-induced arthritis model
Assay type: in vivo
Protocol: On Days 0 and 21, […] of chicken cartilage-derived collagen (Nippon Meat Packers, Inc., Japan) in 0.1 mL of complete Freund's adjuvant (Difco Laboratories, Inc., U.S.) was subcutaneously injected to female DBA/1J Jms Slc mice (6- to 8-week-old) (Japan SLC, Japan) to immunize the mice.
Among the compounds of the present invention, a representative test compound (Example compound 1-N-6 or 2-N-100) was orally administered twice daily every day from Day 21 to Day 34 at a dose of 25 or 50 mg/kg (method A) or from Day 21 to Day 29 at a dose of 1, 3, 10, or 30 mg/kg (method B). The solution for administration was prepared by using 0.5% w/v Methylcellulose 400 Solution (Wako Pure Chemical Industries, Ltd.) as a solvent.
After administration of collagen on Day 21, the extent of development of arthritis in the mouse limbs were scored by visually observing each limb periodically according to the clinical scores outlined in Table X-1.
The clinical scores for all four limbs were summed up for each mouse and the mean±standard error (SE) of each treatment group was calculated. Evaluation was performed until the following day of the final administration.

SMILES | toxicity (method A: oral twice daily Day 21 to Day 34, 25 or 50 mg/kg) | onset of arthritis (clinical scores) (method A: oral twice daily Day 21 to Day 34, 25 or 50 mg/kg, FIG. 1) | toxicity (method B: oral twice daily Day 21 to Day 29, 1, 3, 10 or 30 mg/kg) | onset of arthritis (clinical scores) (method B: oral twice daily Day 21 to Day 29, 1, 3, 10 or 30 mg/kg, FIG. 2)
N#Cc1cccc(-c2cc(N3CCNCC3)c3cnccc3c2)c1 [Example 1-N-6] | did not exhibit toxicity | suppressed the onset of arthritis | – | –
Cc1ccc(C(=O)N2CCC(Nc3cc(-c4cccc(C#N)c4)cc4ccncc34)CC2)cn1 [Example 2-N-100] | – | – | did not exhibit toxicity | suppressed the onset of arthritis
